Experimental data: patent publication US10882826B2, “Quinolinone or quinazolinone comprising antibiofilm compositions, compounds and methods and uses relating thereto” (University College Cork—National University of Ireland, priority 2015, dated 2021)

Legend:
mammalian cells = assay: Cytotoxicity towards mammalian cells (summary statement); assay type: cell-based
[1] = tested on: A. fumigatus Af293 biofilm; assay: A. fumigatus biofilm assay (crystal violet); assay type: cell-based, Aspergillus fumigatus; conditions: for effectiveness against fungal biofilms formed by Aspergillus fumigatus (in words): summary statement
[2] = tested on: A. fumigatus CFBRC2 biofilm; assay: A. fumigatus biofilm assay, clinical source CFBRC2; assay type: cell-based, Aspergillus fumigatus; conditions: biofilm from clinical source CFBRC2
Experimental: (§1) A. fumigatus Af293 was grown on SDA in 100 ml cell culture flasks at 37° C. for 3-4 days. Conidia were harvested by flooding the surface of the agar plates with 5 ml PBS (Oxoid) containing 0.025% (v/v) Tween 20 and gently moving the liquid over the surface of the fungal lawn. The conidial suspension was transferred into a 25 ml sterile container and conidia were counted using a Neubauer haemocytometer and light microscope. Conidia were adjusted to the required concentration in RPMI 1640 (Sigma) buffered to pH 7.0 with 0.165 M MOPS immediately prior to biofilm formation analysis.
(§2) To assess biofilm formation, counted A. fumigatus spores (1×10^5) in MOPS buffered RPMI 1640 were inoculated into 24- and 96-well plates and grown overnight in the presence of 100 μM HHQ, PQS and the test compounds. After 24 hrs, the media was removed and the biofilm washed twice with distilled water after which 0.1% crystal violet (CV) was added to each well and allowed to stand for 1 hr at room temperature. The crystal violet was removed and all wells washed in a water bath by inversion. Ethanol was added to each well to solubilise biofilms after which samples were read on a spectrophotometer at Abs595 nm.
(§3) The above experiments were carried out using biofilms grown from laboratory sources of A. fumigatus. The experiments were repeated to test some compounds against biofilms grown from three different clinical sources of A. fumigatus (CFBRC1, CFBRC2 and CFBRC3. The results are shown in table 8: […]

[3] = tested on: P. aeruginosa PAO1 pqsA-pqsA-lacZ strain; assay: Phenazine extraction (phenazine production); assay type: cell-based; conditions: PAO1 pqsA-pqsA-lacZ strain, test compounds 10 μM, 24 hr; methanol control 0.080
Experimental: P. aeruginosa strains, PAO1 and pqsA mutant, containing the chromosomally inserted pqsA-lacZ promoter fusion on plasmid pUC18-mini-Tn7, were sub-cultured from glycerol stocks onto LB agar plates, supplemented with Carbenicillin (200 μg/ml) and X-gal (40 μg/ml), and incubated at 37° C. overnight. Single colonies were inoculated into LB broth (20 ml), supplemented with Carbenicillin (200 μg/ml), and incubated at 37° C., shaking at 180 rpm overnight. For subsequent experiments, the OD600 nm was recorded and a starting OD600 nm of 0.02 was inoculated into fresh LB broth, supplemented with Carbenicillin (200 μg/ml) and incubated at 37° C., shaking at 180 rpm.
P. aeruginosa strains were cultured as described above for 24 hr, with the addition of test compounds (10 μM). Cultures were centrifuged at 4000 rpm for 10 minutes and the cell free supernatant (5 ml) removed. Chloroform (3 ml) was added, and mixed by vortex. After centrifugation at 4000 rpm for 5 mins, the lower aqueous phase was transferred to 0.2 M HCl (2 ml). Samples were mixed by vortex and centrifuged at 4000 rpm for 5 mins to separate the phases. An aliquot of the top phase (1 ml) was removed and spectrophotmetrically analysed at OD570 nm. Phenazine production was calculated using the following formula: OD570 nm×2×17.072 and the units expressed in μg/ml.
The phenazine production levels and Miller units in the PAO1 pqsA-pqsA-lacZ strain are detailed in table 5.
The virulence of compounds B2, C13 and C15 towards P. aeruginosa was assessed using an analogous method.

[4] = tested on: A. fumigatus CFBRC3 biofilm; assay: A. fumigatus biofilm assay, clinical source CFBRC3; assay type: cell-based, Aspergillus fumigatus; conditions: biofilm from clinical source CFBRC3
Experimental: as §1, §2, §3

[5] = tested on: A. fumigatus CFBRC1 biofilm; assay: A. fumigatus biofilm assay, clinical source CFBRC1; assay type: cell-based, Aspergillus fumigatus; conditions: biofilm from clinical source CFBRC1
Experimental: as §1, §2, §3

DU145 = assay: LDH release cytotoxicity, DU145; assay type: cell-based; conditions: DU145 cell line; percentage of 0.1% Triton
Experimental: Lactate dehydrogenase (LDH) release from IB3 lung epithelial cells was assayed as a measure of cytotoxicity using an LDH colorimetric kit (Roche) according to manufacturers' instructions. Briefly, IB3-1 cells were seeded onto 96 well plates and treated with methanol (control) and test compounds (100 μM). Following 16 hr incubation at 37° C. and 5% CO2, supernatants were removed and added to catalyst reaction mixture in a fresh plate and further incubated at 37° C. and 5% CO2 for 30 mins to allow for colour development. After this period, the plate was analysed on an ELISA plate reader at OD490 nm. Cytotoxicity was expressed as a percentage of cells treated with 0.1% (v/v) Triton (100% cytotoxicity). The results are detailed in table 3:
The above experiments were repeated, testing some compounds against further cell lines (A549, DU145 and HeLa).

Compound: CCCCCCCc1nc2ccccc2c(=O)n1N [Compound C2]
- cytotoxicity towards mammalian cells (in words) (mammalian cells): reduced cytotoxicity
- Relative absorbance at 595 nm compared to methanol control, Mean ([1]; A. fumigatus Af293 biofilm, 100 μM, 24 hrs, crystal violet): 0.37
- effectiveness against fungal biofilms formed by Aspergillus fumigatus (in words) [1]: effective
- Relative absorbance compared to MeOH (=1), Mean [2]: 0.304
- Phenazine, Mean [3]: 0.541 µg/mL
- Relative absorbance compared to MeOH (=1), Mean [4]: 0.292
- Relative absorbance compared to MeOH (=1), Mean [5]: 0.310

Compound: CCCCCCCc1cc(=O)c2cc(Cl)ccc2[nH]1 [Compound C4]
- cytotoxicity towards mammalian cells (in words) (mammalian cells): reduced cytotoxicity
- effectiveness against fungal biofilms formed by Aspergillus fumigatus (in words) [1]: effective
- Phenazine, Mean [3]: 0 µg/mL
- Cytotoxicity, Mean (LDH release) (DU145): 24.42%

Compound: CCCCCCCc1cc(=O)c2cccc(Cl)c2[nH]1 [Compound C5]
- cytotoxicity towards mammalian cells (in words) (mammalian cells): reduced cytotoxicity
- Relative absorbance compared to MeOH (=1), Mean [2]: 0.359
- Phenazine, Mean [3]: 0 µg/mL
- Relative absorbance compared to MeOH (=1), Mean [4]: 0.483
- Relative absorbance compared to MeOH (=1), Mean [5]: 0.297
